We go through seven compounds from ChEMBL document CHEMBL3098042, “New carbocyclic nucleoside analogues with a bicyclo[2.2.1]heptane fragment as sugar moiety; synthesis, X-ray crystallography and anticancer activity” (2014).

One test has as its system T47D. The experiment in a line: Growth inhibition of human T47D cells at 10^-5 M relative to control. The settings on record: values are per cent of control. The test is classed as functional.
In the next test the test system is MDA-MB-468. The experiment in a line: Growth inhibition of human MDA-MB-468 cells at 10^-5 M relative to control. Format: functional. The settings on record: values are per cent of control.
A further test deals with MCF7. Put plainly: Growth inhibition of human MCF7 cells at 10^-5 M relative to control. Format: functional. The settings on record: values are per cent of control.
The nature of test [1]: Growth inhibition of human UO31 cells at 10^-5 M relative to control. Format: functional. As to conditions: UO-31, values are per cent of control.
In another test the test system is PC-3. Put plainly: Growth inhibition of human PC3 cells at 10^-5 M relative to control. The test is classed as functional. As to conditions: values are per cent of control.
Test [2] in a line: Growth inhibition of human RXF393 cells at 10^-5 M relative to control. Format: functional. The settings on record: RXF 393, values are per cent of control.
Test [3] can be described thus: Growth inhibition of human NCI-ADR-RES cells at 10^-5 M relative to control. Format: functional. The settings on record: values are per cent of control.
The subject of a further test is CAKI-1. Put plainly: Growth inhibition of human CAKI-1 cells at 10^-5 M relative to control. Format: functional. The settings on record: values are per cent of control.
A short description of test [4]: Growth inhibition of human OVCAR5 cells at 10^-5 M relative to control. The test is classed as functional. The settings on record: OVCAR-5, values are per cent of control.
For the next test, the system named is IGROV-1. Put plainly: Growth inhibition of human IGROV1 cells at 10^-5 M relative to control. Format: functional. As to conditions: values are per cent of control.
For the next test, the system named is LOX IMVI. The experiment in a line: Growth inhibition of human LOXIMVI cells at 10^-5 M relative to control. The settings on record: values are per cent of control. Format: functional.
The next test relates to SK-MEL-5. Put plainly: Growth inhibition of human SK-MEL-5 cells at 10^-5 M relative to control. Format: functional. The settings on record: values are per cent of control.
The test system of another test is SNB-75. The experiment in a line: Growth inhibition of human SNB75 cells at 10^-5 M relative to control. Format: functional. As to conditions: values are per cent of control.
In another test the test system is HCT-116. The experiment in a line: Growth inhibition of human HCT116 cells at 10^-5 M relative to control. As to conditions: values are per cent of control. The test is classed as functional.
A further test concerns HCT-15. Put plainly: Growth inhibition of human HCT15 cells at 10^-5 M relative to control. Format: functional. The settings on record: values are per cent of control.
The subject of a further test is NCI-H522. The experiment in a line: Growth inhibition of human NCI-H522 cells at 10^-5 M relative to control. As to conditions: values are per cent of control. Format: functional.
In the next test the test system is NCI-H322M. Put plainly: Growth inhibition of human NCI-H322M cells at 10^-5 M relative to control. Format: functional. As to conditions: values are per cent of control.
A further test has as its system MOLT-4. The experiment in a line: Growth inhibition of human MOLT4 cells at 10^-5 M relative to control. The test is classed as functional. The settings on record: values are per cent of control.
For a further test, the system named is SR. The experiment in a line: Growth inhibition of human SR cells at 10^-5 M relative to control. The settings on record: values are per cent of control. The test is classed as functional.
The subject of another test is K562. Put plainly: Growth inhibition of human K562 cells at 10^-5 M relative to control. Format: functional. The settings on record: values are per cent of control.
The next test relates to HL-60(TB). Put plainly: Growth inhibition of human HL-60(TB) cells at 10^-5 M relative to control. The test is classed as functional. As to conditions: values are per cent of control.
A further test concerns CCRF-CEM. The experiment in a line: Growth inhibition of human CCRF-CEM cells at 10^-5 M relative to control. As to conditions: values are per cent of control. The test is classed as functional.
The subject of the next test is NCI-H226. The experiment in a line: Growth of human NCI-H226 cells at 10^-5 M relative to control.

On to `OC[C@H]1[C@@H]2C[C@H](n3cnc4c(NC5CC5)ncnc43)[C@H]1C[C@@H]2Cl`, for which the growth, % of control at 10 µM came to 89.6% in the test on T47D; 100% in the test on MDA-MB-468; 98.5% in the test with MCF7; 85.8% in [1]; 104% in the test on PC-3; 110% in test [2]. Moreover, the growth, % of control at 10 µM in test [3] was found to be 101%; in the test on CAKI-1, 102%; in test [4], 95%; in the test with IGROV-1, 90.6%; with LOX IMVI, 89.6%; with SK-MEL-5 it was 101%. Moreover, the growth, % of control at 10 µM in the test with SNB-75 turned out to be 97.8%; with HCT-116, 96.5%; in the test on HCT-15, 96.5%; in the test on NCI-H522, 88.7%; in the test on NCI-H322M, 90%; in the test with MOLT-4, 84.8%. In addition, the growth, % of control at 10 µM is 86.6% in the test on SR; 95.8% in the test with K562; 89% in the test on HL-60(TB); 89.5% in the test on CCRF-CEM; -27.2% in the test on NCI-H226.
For `CN(C)c1ncnc2c1ncn2[C@H]1C[C@@H]2C=C[C@H]1[C@H]2CO`, the growth, % of control at 10 µM with T47D was 104%; with MDA-MB-468 it was 98.2%; with MCF7, 98.7%; in test [1], 82.7%; in the test with PC-3, 92%; in test [2] it was 109%. In addition, the growth, % of control at 10 µM in test [3] was 99.5%; in the test with CAKI-1, 97.9%; in test [4] it was 96.5%; with IGROV-1 it was 98.2%; in the test on LOX IMVI, 95.8%; with SK-MEL-5, 98.3%. For the same compound, the growth, % of control at 10 µM was 109% in the test on SNB-75; 94.8% with HCT-116; 98.9% in the test with HCT-15; 98.5% in the test with NCI-H522; 104% in the test on NCI-H322M; 79.7% in the test on MOLT-4. Besides, the growth, % of control at 10 µM with SR turned out to be 82.2%; in the test on K562, 90%; in the test on HL-60(TB), 88.8%; with CCRF-CEM, 87.9%; with NCI-H226 it was 109%.
Take `CCN(CC)CCCNc1ncnc2c1ncn2[C@H]1C[C@H]2[C@H](CO)[C@@H]1C[C@@H]2Cl`: the growth, % of control at 10 µM was determined as 104% in the test on T47D; 101% in the test on MDA-MB-468; 95.9% in the test on MCF7; 80.6% in test [1]; 102% with PC-3; 111% in test [2]. The growth, % of control at 10 µM turned out to be 103% in test [3]; 93% in the test with CAKI-1; 99.7% in test [4]; 112% in the test on IGROV-1; 96.9% in the test with LOX IMVI; 102% in the test on SK-MEL-5. Moreover, the growth, % of control at 10 µM in the test with SNB-75 turned out to be 99.2%; in the test on HCT-116, 98.5%; in the test on HCT-15, 101%; with NCI-H522, 93.2%; in the test on NCI-H322M, 93.2%; in the test with MOLT-4, 83.6%. For the same compound, the growth, % of control at 10 µM was determined as 85.8% with SR; 106% in the test on K562; 90.5% in the test on HL-60(TB); 90.2% in the test on CCRF-CEM; 105% in the test with NCI-H226.
Regarding `OC[C@H]1[C@@H]2C[C@H](n3cnc4c(NCCc5ccccc5)ncnc43)[C@H]1C[C@@H]2Cl`, the growth, % of control at 10 µM in the test with T47D was determined as 86.8%; in the test with MDA-MB-468 it was 89.4%; with MCF7, 89.9%; in [1], 73.8%; in the test on PC-3, 89.1%; in test [2], 87%. Also, the growth, % of control at 10 µM in [3] was 88.2%; in the test on CAKI-1, 96%; in test [4], 104%; with IGROV-1, 105%; in the test on LOX IMVI it was 92.7%; in the test with SK-MEL-5, 73.9%. Also, the growth, % of control at 10 µM was 106% with SNB-75; 101% in the test on HCT-116; 81.7% with HCT-15; 99.5% in the test on NCI-H322M; 83.3% in the test on MOLT-4; 84.1% in the test on SR. Besides, the growth, % of control at 10 µM is 91.1% in the test with K562, 120% in the test with HL-60(TB) and 87.6% in the test on CCRF-CEM.
As to `CN(C)c1ncnc2c1ncn2[C@H]1C[C@H]2[C@H](CO)[C@@H]1C[C@@H]2Cl`, the growth, % of control at 10 µM in the test on T47D stood at 96.8%; with MDA-MB-468 it was 102%; in the test with MCF7, 94.9%; in test [1], 79.1%; in the test on PC-3, 93.3%; in test [2] it was 109%. Further, the growth, % of control at 10 µM in test [3] came out at 98.7%; with CAKI-1 it was 95.1%; in [4], 90.3%; in the test with IGROV-1, 101%; with LOX IMVI, 96.8%; in the test on SK-MEL-5, 99.5%. The growth, % of control at 10 µM amounted to 99.3% in the test on SNB-75; 101% in the test on HCT-116; 100% in the test with HCT-15; 88.3% with NCI-H522; 96.8% in the test with NCI-H322M; 78.9% in the test with MOLT-4. Further, the growth, % of control at 10 µM in the test with SR was 81.4%; in the test with K562, 91%; in the test on HL-60(TB), 98.2%; with CCRF-CEM, 86.7%; in the test on NCI-H226, 101%.
Regarding `CN1CCN(c2ncnc3c2ncn3[C@H]2C[C@H]3[C@H](CO)[C@@H]2C[C@@H]3Cl)CC1`, the growth, % of control at 10 µM is 100% with T47D; 101% in the test with MDA-MB-468; 84% with MCF7; 78.5% in test [1]; 96.2% in the test on PC-3; 111% in [2]. In addition, the growth, % of control at 10 µM in test [3] turned out to be 100%; in the test on CAKI-1, 98.4%; in test [4], 96.4%; with IGROV-1, 92.7%; in the test with LOX IMVI it was 98%; in the test on SK-MEL-5, 99.4%. Moreover, the growth, % of control at 10 µM turned out to be 107% in the test on SNB-75; 101% in the test on HCT-116; 97.7% in the test on HCT-15; 92.7% in the test on NCI-H322M; 83.4% in the test with MOLT-4; 81% in the test with SR. The growth, % of control at 10 µM in the test with K562 was found to be 107%; with HL-60(TB) it was 86%; in the test with CCRF-CEM, 90.5%; with NCI-H226 it was 102%.
Regarding `OC[C@H]1[C@@H]2C[C@H](n3cnc4c(NC5CCCC5)ncnc43)[C@H]1C[C@@H]2Cl`, the growth, % of control at 10 µM in the test on T47D was 94.1%; with MDA-MB-468 it was 102%; in the test on MCF7, 97.2%; in [1] it was 99.6%; in the test with PC-3, 95.3%; in test [2] it was 104%. For the same compound, the growth, % of control at 10 µM was found to be 103% in [3]; 99% with CAKI-1; 98.8% in test [4]; 89.7% in the test on LOX IMVI; 95.7% with SK-MEL-5; 88% in the test with SNB-75. For the same compound, the growth, % of control at 10 µM with HCT-116 is 99.8%; in the test with HCT-15, 93.7%; in the test on NCI-H522, 101%; in the test on MOLT-4, 87.1%; with SR, 86.5%; in the test with K562, 93.1%. Also, the growth, % of control at 10 µM came to 118% with HL-60(TB) and 83.7% in the test on CCRF-CEM.
